How the values were obtained:
[1] = system: CD4+ and CD8+ T cells; test: Percent viable and total live cells of T cell composition produced with Compound 63; type: cell-based, human; details: 1 μM Compound 63 during process
Description: (§1) CD4+ and CD8+ T cells were isolated by immunoaffinity-based enrichment from leukapheresis samples from human donor subjects. At day 1, isolated CD4+ and CD8+ T cells were mixed 1:1 and stimulated with an anti-CD3/anti-CD28 oligomeric stimulatory reagent generated as described in Example 2 in serum-free media supplemented with recombinant IL-2 (100 IU/mL), recombinant IL-7 (600 IU/mL), and recombinant IL-15 (100 IU/mL) with or without 1 μM of 2-(3-hydroxyphenyl)-9-(2-isopropylphenyl)-8-oxo-8,9-dihydro-7H-purine-6-carboxamide (Compound 63). The T cells cultured with our without Compound 63 were incubated overnight (approximately 24 hr) at 37° C., and were then transduced in serum-free culture media with our without Compound 63 ([…]) with a lentiviral vector encoding an anti-CD19 CAR. […]
(§2) The cryofrozen engineered CD4+ and CD8+ T cells were thawed, and T cells were assessed for intracellular S6 phosphorylation, a ribosomal protein and marker of mTOR inhibition, and co-stained for surface expression of CD4 or CD8 and for CCR7 and CD45RA as markers of memory subsets. pS6 expression in live CD8+ T cells by memory subsets was shown by the expression of CCR7 and CD45RA as shown in FIG. 30A.

[2] = biological target: T1, mTOR (Homo sapiens, UniProt P42345); test: Intracellular S6 phosphorylation in engineered T cells produced with mTOR kinase inhibitor; type: cell-based; details: 1 μM Compound 63 during process; CD8+ memory subsets
T1 construct: endogenous in cells; host or cells: primary human CD4+ and CD8+ T cells transduced with an anti-CD19 CAR
Description: as §1, §2

[3] = system: CD27 and CCR7; test: Surface CD27 and CCR7 phenotype of T cells produced with Compound 63; type: cell-based, human; details: CD8+ and CD4+ T cells
Description: (§3) Thawed cells generated by the process described were assessed for a marker of apoptosis (e.g., percentage of caspase positive CAR-T cells), phenotypic profile, and ability to produce intracellular cytokines following stimulation with PMA/Ionomycin and a Golgi Inhibitor. […] Thawed cells also were stained for surface expression of CD27 and CCR7 by flow cytometry.

[4] = system: CD4+ and CD8+ T cells; test: Intracellular cytokines after PMA/Ionomycin and Golgi inhibitor; type: cell-based, human
Description: as §3

[5] = system: anti-idiotype (ID) antibody against the anti-CD19 CAR; test: Long-term 12 day stimulation with anti-idiotype antibody beads; type: cell-based, human; details: 12 days anti-ID beads
From the text: To further assess the functional activity of the cells, the generated T cell compositions were stimulated long-term over 12 days with beads conjugated with an anti-idiotype (ID) antibody against the anti-CD19 CAR, and expansion and survival of the cells were monitored (FIG. 31F, left panel) and total expansion metric calculated by area under the curve (FIG. 31F, right panel).

[6] = system: CAR-T cells; test: Apoptosis marker (intracellular caspase) in thawed CAR-T cells; type: cell-based, human; details: vs cells not incubated with compound 63
Description: as §3

With CC(C)c1ccccc1-n1c(=O)[nH]c2c(C(N)=O)nc(-c3cccc(O)c3)nc21 [Compound 63, 2-(3-hydroxyphenyl)-9-(2-isopropylphenyl)-8-oxo-8,9-dihydro-7H-purine-6-carboxamide] the “percent viable cells or total live cells” value [1] was “did not impact the percent viable cells or the total live cells”, the “pS6 mean fluorescence intensity (marker of mTOR inhibition)” value [2] was “decreased the mean fluorescence intensity of stimulated memory T cell subsets” and the “phenotypic subset profile by CD27 and/or CCR7” value [3] was “did not substantially alter the phenotypic subset profile of the cells”. For the same compound, the “level of intracellular cytokines IL2, IFNg, or TNF” value [4] was “substantially improved”, the “expansion and survival after long-term CAR-specific stimulation” value [5] was “improved function of the T cells was observed following long-term CAR-specific stimulation” and the intracellular caspase expression [6] was “less intracellular caspase expression”.

Source: patent US12516099B2, “Processes for generating engineered cells and compositions thereof” (Juno Therapeutics, Inc., priority 2018, dated 2026)
